Where a SMILES comes first, the peptide text is derived from it. The star is where a group is joined. Cbz = O=C(OCc1ccccc1)*
Test system: BJeLR
Experiment: Modulatory profiling: Alamar Blue viability, lethal compound cotreated with death modulator (EC50, AUC)
Assay type: cell-based, human
Parameters: AUC, modulator BJ.Gd3+ / AUC, modulator BJ.LNAME / AUC, modulator BJ.Lmin / AUC, modulator BJ.3MA / AUC, modulator BJ.ALLN / AUC, modulator BJ.Boc D / AUC, modulator BJ.CHX / AUC, modulator BJ.Co2+ / AUC, modulator BJ.Nec-1 / AUC, modulator BJ.Pepstatin / AUC, modulator BJ.TLCK / AUC, modulator BJ.atoc / AUC, modulator BJ.trolox / AUC, modulator BJ.zVAD: unit not given beside the values
Conditions: BJeLR cells, modulatory profile value (AUC); for AUC, modulator BJ.3MA: lethal compound cotreated with modulator 3MA; for AUC, modulator BJ.ALLN: lethal compound cotreated with modulator ALLN; for AUC, modulator BJ.Boc D: lethal compound cotreated with modulator Boc D; for AUC, modulator BJ.CHX: lethal compound cotreated with modulator CHX; for AUC, modulator BJ.Co2+: lethal compound cotreated with modulator Co2+; for AUC, modulator BJ.DPQ: lethal compound cotreated with modulator DPQ; for AUC, modulator BJ.Gd3+: lethal compound cotreated with modulator Gd3+; for AUC, modulator BJ.LNAME: lethal compound cotreated with modulator LNAME; for AUC, modulator BJ.Lmin/NAD+: lethal compound cotreated with modulator Lmin/NAD+; for AUC, modulator BJ.Lmin: lethal compound cotreated with modulator Lmin; for AUC, modulator BJ.NAD+: lethal compound cotreated with modulator NAD+; for AUC, modulator BJ.NMMA: lethal compound cotreated with modulator NMMA; for AUC, modulator BJ.Nec-1: lethal compound cotreated with modulator Nec-1; for AUC, modulator BJ.Pepstatin: lethal compound cotreated with modulator Pepstatin; for AUC, modulator BJ.TLCK: lethal compound cotreated with modulator TLCK; for AUC, modulator BJ.atoc: lethal compound cotreated with modulator atoc; for AUC, modulator BJ.trolox: lethal compound cotreated with modulator trolox; for AUC, modulator BJ.zVAD: lethal compound cotreated with modulator zVAD

Compound	AUC, modulator BJ.3MA	AUC, modulator BJ.ALLN	AUC, modulator BJ.Boc D	AUC, modulator BJ.CHX	AUC, modulator BJ.Co2+	AUC, modulator BJ.DPQ	AUC, modulator BJ.Gd3+	AUC, modulator BJ.LNAME	AUC, modulator BJ.Lmin/NAD+	AUC, modulator BJ.Lmin	AUC, modulator BJ.NAD+	AUC, modulator BJ.NMMA	AUC, modulator BJ.Nec-1	AUC, modulator BJ.Pepstatin	AUC, modulator BJ.TLCK	AUC, modulator BJ.atoc	AUC, modulator BJ.trolox	AUC, modulator BJ.zVAD
CS[C@H]1SC[C@H]2C(=O)N(C)[C@@H](C(C)C)C(=O)OC[C@@H](NC(=O)c3cnc4ccccc4n3)C(=O)N[C@@H](C)C(=O)N(C)[C@@H]1C(=O)N(C)[C@@H](C(C)C)C(=O)OC[C@@H](NC(=O)c1cnc3ccccc3n1)C(=O)N[C@@H](C)C(=O)N2C [Echinomycin]	0.3457	0.02426	0.04925	0.2015	0.09321	−0.004325	0.002041	0.01199	0.2351	0.1205	0.2292	0.01082	−0.01901	−0.004369	−0.001724	0.1681	−0.04322	0.005973
CC(C)C[C@@H](C=O)NC(=O)[C@H](CC(C)C)NC(=O)[C@H](CC(C)C)NC(=O)OCc1ccccc1 [MG132, reference compound] (Cbz-Leu-Leu-Leu-aldehyde)	−0.04346	−0.2701	0.04216	0.2476	0.1849	−0.01327	0.03163	0.01789	0.2064	0.1487	0.04274	0.02073	−0.0504	−0.02291	0.1241	−0.002326	−0.01449	−0.08452
CC(C)C[C@H](NC(=O)[C@H](CC(C)C)NC(=O)[C@H](CC(C)C)NC(=O)OCc1ccccc1)B(O)O [MG262]	−0.0362	−0.1989	0.01756	0.2438	0.1109	0.005064	0.02134	0.02272	0.152	0.1437	0.06084	−0.006928	−0.01342	0.006624	0.09405	0.05198	0.008087	−0.05498
O=C1c2c(O)ccc(O)c2C(=O)c2c(NCCNCCO)ccc(NCCNCCO)c21 [Mitoxantrone]	0.03352	0.06204	0.03746	0.1437	0.4538	−0.05814	0.01069	0.007578	0.1162	0.04368	0.08733	0.004431	−0.03038	0.003263	0.02288	0.02585	−0.01862	0.0497
[N-]=[N+]=[N-].[Na+] [NaN3]	−0.09559	−0.00382	−0.007273	0.07262	−0.02123	−0.06947	0.01113	−0.01832	−0.007837	−0.08417	0.0696	0.005874	−0.05229	0.01611	0.032	−0.005135	−0.03837	−0.001065
COc1cc([C@@H]2c3cc4c(cc3[C@H](O)[C@H]3COC(=O)[C@H]23)OCO4)cc(OC)c1OC [Podophyllotoxin]	−0.01267	−0.003673	0.003542	0.1228	0.09497	−0.03896	0.01784	0.005868	0.1012	0.05457	0.09627	−0.007043	−0.04167	0.02214	−0.02042	0.007072	−0.01282	0.0496

Source: patent US10947188B2, “Small molecule ferroptosis inducers” (THE TRUSTEES OF COLUMBIA UNIVERSITY IN THE CITY OF NEW YORK, priority 2016, dated 2021)
